PubChem BioAssay AID2060606 (Molecular Pharmacology Branch, DTP, NCI, 2025)
Values joined by “and” are separate entries in the source; they are usually repeats but may differ in a detail not shown here. Equal entries are not always repeated.

Test system: 922993-354-T-J3-PDC complex spheroids, viability, % test/control
Test: Anticancer human tumor 922993-354-T-J3-PDC patient-derived endometrial carcinoma cell line growth inhibition [CLK]
Settings: for viability, T/C: stronger effect = lower value
Method in brief: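 Patient-derived tumor cells grown as complex spheroids with HUVEC endothelial cells and mesenchymal stem cells, treated with drug combinations. Concentrations descend in half-log steps from near clinical Cmax, or from 10 microM if Cmax unknown.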

[1] = curve of first compound, second compound 0.0316 µM
[2] = curve of first compound, second compound 0.1 µM
[3] = curve of first compound, second compound 0.316 µM
[4] = curve of first compound, second compound 1 µM
[5] = curve of first compound, second compound 3.16 µM
[6] = curve of first compound, second compound 10 µM
[7] = second compound 0.0316 µM, first compound 0.0316 µM
[8] = second compound 0.0316 µM, first compound 0.1 µM
[9] = second compound 0.0316 µM, first compound 0.316 µM
[10] = second compound 0.0316 µM, first compound 1 µM
[11] = second compound 0.1 µM, first compound 0.0316 µM
[12] = second compound 0.1 µM, first compound 0.1 µM
[13] = second compound 0.1 µM, first compound 0.316 µM
[14] = second compound 0.1 µM, first compound 1 µM
[15] = second compound 0.316 µM, first compound 0.0316 µM
[16] = second compound 0.316 µM, first compound 0.1 µM
[17] = second compound 0.316 µM, first compound 0.316 µM
[18] = second compound 0.316 µM, first compound 1 µM
[19] = second compound 1 µM, first compound 0.0316 µM
[20] = second compound 1 µM, first compound 0.1 µM
[21] = second compound 1 µM, first compound 0.316 µM
[22] = second compound 1 µM, first compound 1 µM
[23] = second compound 3.16 µM, first compound 0.0316 µM
[24] = second compound 3.16 µM, first compound 0.1 µM
[25] = second compound 3.16 µM, first compound 0.316 µM
[26] = second compound 3.16 µM, first compound 1 µM
[27] = second compound 10 µM, first compound 0.0316 µM
[28] = second compound 10 µM, first compound 0.1 µM
[29] = second compound 10 µM, first compound 0.316 µM
[30] = second compound 10 µM, first compound 1 µM
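Further: spheroids exposed to the agents for 7 days before readout.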

Nc1ccccc1NC(=O)c1ccc(CNC(=O)OCc2cccnc2)cc1 + CNC(=O)c1ccc(Nc2nc(OC3CCCC3)c3c(-c4ccc5nc(C)oc5c4)c[nH]c3n2)c(OC)c1
IC50 [1]: > 10000 nM | IC50 [2]: 6250 nM | IC50 [3]: 2290 nM | IC50 [4]: < 31.6 nM | IC50 [5]: < 31.6 nM | IC50 [6]: < 31.6 nM | viability, T/C [7]: 106% | viability, T/C [8]: 99.7% | viability, T/C [9]: 93.3% | viability, T/C [10]: 86.6% | viability, T/C (second compound 0.0316 µM, first compound 3.16 µM): 65.1% | viability, T/C (second compound 0.0316 µM, first compound 10 µM): 52.1% | viability, T/C [11]: 106% | viability, T/C [12]: 93.8% | viability, T/C [13]: 97.7% | viability, T/C [14]: 77.4% | viability, T/C (second compound 0.1 µM, first compound 3.16 µM): 58.4% | viability, T/C (second compound 0.1 µM, first compound 10 µM): 44.4% | viability, T/C [15]: 59.1% | viability, T/C [16]: 50% | viability, T/C [17]: 57.9% | viability, T/C [18]: 51.9% | viability, T/C (second compound 0.316 µM, first compound 3.16 µM): 49.3% | viability, T/C (second compound 0.316 µM, first compound 10 µM): 34.4% | viability, T/C [19]: 37.6% | viability, T/C [20]: 37% | viability, T/C [21]: 31.9% | viability, T/C [22]: 34.4% | viability, T/C (second compound 1 µM, first compound 3.16 µM): 31.9% | viability, T/C (second compound 1 µM, first compound 10 µM): 8.75% | viability, T/C [23]: 29% | viability, T/C [24]: 30.7% | viability, T/C [25]: 27.9% | viability, T/C [26]: 31.5% | viability, T/C (second compound 3.16 µM, first compound 3.16 µM): 24.8% | viability, T/C (second compound 3.16 µM, first compound 10 µM): 6.59% | viability, T/C [27]: 28.8% | viability, T/C [28]: 24.2% | viability, T/C [29]: 24.8% | viability, T/C [30]: 30.1% | viability, T/C (second compound 10 µM, first compound 3.16 µM): 17.2% | viability, T/C (second compound 10 µM, first compound 10 µM): 5.11%

CCc1c2c(nc3ccc(O)cc13)-c1cc3c(c(=O)n1C2)COC(=O)[C@]3(O)CC + CN1CCN(c2cc(C(=O)Nc3cc4cc(-c5cnn(C)c5)ccc4cn3)ccn2)CC1
IC50 [1]: 16.6 nM | IC50 [2]: 15.2 nM | IC50 [3]: < 3.16 nM | IC50 [4]: < 3.16 nM | IC50 [5]: < 3.16 nM | IC50 [6]: < 3.16 nM | viability, T/C (second compound 0.0316 µM, first compound 0.00316 µM): 96.4% | viability, T/C (second compound 0.0316 µM, first compound 0.01 µM): 75.1% | viability, T/C [7]: 16.3% | viability, T/C [8]: 16.1% | viability, T/C [9]: 16.8% | viability, T/C [10]: 24.9% | viability, T/C (second compound 0.1 µM, first compound 0.00316 µM): 84.3% | viability, T/C (second compound 0.1 µM, first compound 0.01 µM): 66.9% | viability, T/C [11]: 14.1% | viability, T/C [12]: 18.8% | viability, T/C [13]: 16.2% | viability, T/C [14]: 32.3% | viability, T/C (second compound 0.316 µM, first compound 0.00316 µM): 27.2% | viability, T/C (second compound 0.316 µM, first compound 0.01 µM): 19.2% | viability, T/C [15]: 9.9% | viability, T/C [16]: 9.85% | viability, T/C [17]: 18.8% | viability, T/C [18]: 15.8% | viability, T/C (second compound 1 µM, first compound 0.00316 µM): 0.1% | viability, T/C (second compound 1 µM, first compound 0.01 µM): 0.13% | viability, T/C [19]: 1.37% | viability, T/C [20]: 0.07% | viability, T/C [21]: 0.87% | viability, T/C [22]: 0.33% | viability, T/C (second compound 3.16 µM, first compound 0.00316 µM): 0.08% | viability, T/C (second compound 3.16 µM, first compound 0.01 µM): 0.17% | viability, T/C [23]: 0.99% | viability, T/C [24]: 1.34% | viability, T/C [25]: 1% | viability, T/C [26]: 2.82% | viability, T/C (second compound 10 µM, first compound 0.00316 µM): 0.12% | viability, T/C (second compound 10 µM, first compound 0.01 µM): 0.14% | viability, T/C [27]: 0.83% | viability, T/C [28]: 0.18% | viability, T/C [29]: 0.59% | viability, T/C [30]: 2.79%

O=C(c1cc(Cc2n[nH]c(=O)c3ccccc23)ccc1F)N1CCN(C(=O)C2CC2)CC1
viability, T/C (compound 0.0316 µM): 81.9% and 98.5% | viability, T/C (compound 0.1 µM): 91.4% and 88.5% | viability, T/C (compound 0.316 µM): 85.5% and 102% | viability, T/C (compound 1 µM): 93% and 118% | viability, T/C (compound 3.16 µM): 96.8% and 107% | viability, T/C (compound 10 µM): 83.2% and 100% | IC50 (curve of compound): > 10000 nM

COc1cccc2c1C(=O)c1c(O)c3c(c(O)c1C2=O)CC(O)(C(=O)CO)CC3OC1CC(N)C(O)C(C)O1 (centres undefined)
viability, T/C (compound 0.0316 µM): 92.5% and 100% | viability, T/C (compound 0.1 µM): 97.2% and 86% | viability, T/C (compound 0.316 µM): 91.5% and 102% | viability, T/C (compound 1 µM): 63.7% and 75.1% | viability, T/C (compound 3.16 µM): 38.8% and 41.3% | viability, T/C (compound 10 µM): 13.7% and 21.8% | IC50 (curve of compound): 1910 nM and 2330 nM

O=c1[nH]cc(F)c(=O)[nH]1
viability, T/C (compound 0.0316 µM): 102% and 101% | viability, T/C (compound 0.1 µM): 95.8% and 97.9% | viability, T/C (compound 0.316 µM): 86.8% and 93.4% | viability, T/C (compound 1 µM): 104% and 115% | viability, T/C (compound 3.16 µM): 38% and 60.7% | viability, T/C (compound 10 µM): 26.7% and 35.1% | IC50 (curve of compound): 2510 nM and 5110 nM

Cn1ncnc1[C@H]1c2n[nH]c(=O)c3cc(F)cc(c23)N[C@@H]1c1ccc(F)cc1
viability, T/C (compound 0.000316 µM): 94.9% and 97.8% | viability, T/C (compound 0.001 µM): 80.7% and 87.4% | viability, T/C (compound 0.00316 µM): 104% and 100% | viability, T/C (compound 0.01 µM): 124% and 103% | viability, T/C (compound 0.0316 µM): 104% and 98.2% | viability, T/C (compound 0.1 µM): 75.3% and 72.6% | IC50 (curve of compound): > 100 nM

NC(=O)C(=Cn1cnc(-c2cc(C(F)(F)F)cc(C(F)(F)F)c2)n1)c1cncnc1 + CN1CCN(c2cc(C(=O)Nc3cc4cc(-c5cnn(C)c5)ccc4cn3)ccn2)CC1
IC50 [1]: 229 nM | IC50 [2]: 173 nM | IC50 [3]: < 9.49 nM | IC50 [4]: < 9.49 nM | IC50 [5]: < 9.49 nM | IC50 [6]: < 9.49 nM | viability, T/C (second compound 0.0316 µM, first compound 0.00949 µM): 119% | viability, T/C (second compound 0.0316 µM, first compound 0.03 µM): 115% | viability, T/C (second compound 0.0316 µM, first compound 0.0949 µM): 82.1% | viability, T/C (second compound 0.0316 µM, first compound 0.3 µM): 40.1% | viability, T/C (second compound 0.0316 µM, first compound 0.949 µM): 30.6% | viability, T/C (second compound 0.0316 µM, first compound 3 µM): 41.2% | viability, T/C (second compound 0.1 µM, first compound 0.00949 µM): 118% | viability, T/C (second compound 0.1 µM, first compound 0.03 µM): 118% | viability, T/C (second compound 0.1 µM, first compound 0.0949 µM): 80.7% | viability, T/C (second compound 0.1 µM, first compound 0.3 µM): 21.7% | viability, T/C (second compound 0.1 µM, first compound 0.949 µM): 21.5% | viability, T/C (second compound 0.1 µM, first compound 3 µM): 20% | viability, T/C (second compound 0.316 µM, first compound 0.00949 µM): 48.8% | viability, T/C (second compound 0.316 µM, first compound 0.03 µM): 32.3% | viability, T/C (second compound 0.316 µM, first compound 0.0949 µM): 4.78% | viability, T/C (second compound 0.316 µM, first compound 0.3 µM): 1.32% | viability, T/C (second compound 0.316 µM, first compound 0.949 µM): 0.16% | viability, T/C (second compound 0.316 µM, first compound 3 µM): 1.43% | viability, T/C (second compound 1 µM, first compound 0.00949 µM): 0.11% | viability, T/C (second compound 1 µM, first compound 0.03 µM): 0.75% | viability, T/C (second compound 1 µM, first compound 0.0949 µM): 0.12% | viability, T/C (second compound 1 µM, first compound 0.3 µM): 0.07% | viability, T/C (second compound 1 µM, first compound 0.949 µM): 0.71% | viability, T/C (second compound 1 µM, first compound 3 µM): 2.13% | viability, T/C (second compound 3.16 µM, first compound 0.00949 µM): 0.1% | viability, T/C (second compound 3.16 µM, first compound 0.03 µM): 0.13% | viability, T/C (second compound 3.16 µM, first compound 0.0949 µM): 0.17% | viability, T/C (second compound 3.16 µM, first compound 0.3 µM): 1.63% | viability, T/C (second compound 3.16 µM, first compound 0.949 µM): 1.45% | viability, T/C (second compound 3.16 µM, first compound 3 µM): 2.46% | viability, T/C (second compound 10 µM, first compound 0.00949 µM): 0.14% | viability, T/C (second compound 10 µM, first compound 0.03 µM): 0.16% | viability, T/C (second compound 10 µM, first compound 0.0949 µM): 1.88% | viability, T/C (second compound 10 µM, first compound 0.3 µM): 0.19% | viability, T/C (second compound 10 µM, first compound 0.949 µM): 0.8% | viability, T/C (second compound 10 µM, first compound 3 µM): 2.01%
